# Assay results as given in PMC4291147, “Molecular Basis of Histone Tail Recognition by Human TIP5 PHD Finger and Bromodomain of the Chromatin Remodeling Complex NoRC” (Structure(London, England:1993), 2015).
# Where no end group is shown, it is not given here.
# Columns and labels:
# BAZ2B BRD = target: T1, BAZ2B BRD (Homo sapiens, UniProt Q9UIF8); assay: ITC, histone peptide binding to BAZ2B BRD; details: 20 mM HEPES (pH 7.5–8), 150 mM NaCl, 0.5 mM TCEP, 293 or 298 K
# T1 construct: 2054- 2168 f or BAZ2B) regions; hexa-histidine (pNIC28-Bsa4, TEV site) (N, cleaved yes); made in house; host or cells: E. coli BL21(DE3) Rosetta or BL21(DE3)-R3-pRARE2
# T1 sequence (Q9UIF8 2054-2168): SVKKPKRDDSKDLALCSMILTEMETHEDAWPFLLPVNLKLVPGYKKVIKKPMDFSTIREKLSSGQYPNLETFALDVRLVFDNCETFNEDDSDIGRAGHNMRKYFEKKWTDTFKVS
# Method: (§1) All calorimetric experiments were performed on an ITC200 or VP-ITC microcalorimeters (MicroCal). Protein solutions were buffer exchanged by gel filtration into buffer (20 mM HEPES [pH 8], 150 mM NaCl, 0.5 mM Tris [2-carboxyethyl]phosphine [TCEP]), and lyophilized histone peptides were dissolved in the same buffer. All measurements were carried out at 293 or 298 K. Protein solutions (60–120 μM) in the calorimetric cell were titrated with the peptide solutions (800–1,500 μM) in the syringe. The data were analyzed with the MicroCal ORIGIN software package using, in most cases, a single binding site model. The first data point was excluded from the analysis. […]
# (§2) The cDNAs encoding tandem PHD zinc finger and bromodomain of human TIP5 […]
# GeneBank: Q9UIF8) were synthesized by GenScript with codons optimized f or E. coli. expression and were subcloned into a modif ied pET15 vector using NdeI/XhoI sites f or expression as recombinant proteins with a His6 tag fused with small ubiquitin like modifier (SUMO)-1 fusion tag at the N terminus. cDNA sequences were used as a template to amplify single PHD zinc fingers (residues 1673- 1728 for TIP5; residues 2054- 2168 f or BAZ2B) regions. Single PHD zinc f ingers were introduced into the same modif ied SUMO tagged plasmid whereas single bromodomains were f urther subcloned into pET28 derived expression vectors, pNIC28- Bsa4 using ligation independent cloning (Stols et al., 2002).
# Protein Expression and Purification
# Best expression constructs encoding all target proteins were transformed into E. coli competent BL21(DE3) Rosetta cells (Invitrogen) or into BL21 (DE3)-R3-pRARE2 cells (phage- resistant derivative with a pRARE plasmid encoding rare codon tRNAs). Cells were grown at 37 °C in Terrific Broth (Sigma) from overnight cultures until A600 reached between 0.6- 0.8, then the media was cooled and 0.2 mM isopropyl-β-Dthiogalactopyranoside (IPTG) was added to induce the protein expression at 20 °C f or 16 hours. An extra 0.1 mM ZnCl 2 was added in the protein expression to those targets that contained a PHD zinc f inger.
# Different purification procedures have been optimized for each target protein. In common, E. coli overexpressed cells were lysed using an EmulsiFlex-C5 hig h-pr es s ure homogenizer (Avestin - Mannheim, Germany) or high -pressure cell disruption (Constant Systems Limited) in loading buffer A from the nickel affinity column (HisTrap Chelating FF 5ml) in the presence of Protease Inhibitor Cocktail EDTA-free (Roche).
# Lysates were cleared by centrif ugation (14,000 x g f or 45m in at 4 °C, JLA 16.250 rotor, on a Beckman Coulter Avanti J-20 XP centrif uge). After centrif ugation, the supernatant was loaded onto the nickel column and eluted in an imidazole linear gradient. The
# TIP5 BRD = target: T2, TIP5 BRD (Homo sapiens, UniProt Q9UIF9); assay: ITC, histone peptide binding to TIP5 BRD; details: 20 mM HEPES (pH 7.5–8), 150 mM NaCl, 0.5 mM TCEP, 293 or 298 K
# T2 construct: (residues 1797- 1899 for TIP5, residues); hexa-histidine (pNIC28-Bsa4, TEV site) (N, cleaved yes); made in house; host or cells: E. coli BL21(DE3) Rosetta or BL21(DE3)-R3-pRARE2
# T2 sequence (Q9UIF9 1797-1899): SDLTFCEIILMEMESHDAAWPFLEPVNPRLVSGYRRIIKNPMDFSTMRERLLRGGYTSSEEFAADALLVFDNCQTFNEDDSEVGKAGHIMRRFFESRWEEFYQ
# Method: All calorimetric experiments were performed on an ITC200 or VP-ITC microcalorimeters (MicroCal). […] The data were analyzed with the MicroCal ORIGIN software package using, in most cases, a single binding site model. The first data point was excluded from the analysis. […]
# as §2
# GeneBank: Q9UIF8) were synthesized by GenScript with codons optimized f or E. coli. expression and were subcloned into a modif ied pET15 vector using NdeI/XhoI sites f or expression as recombinant proteins with a His6 tag fused with small ubiquitin like modifier (SUMO)-1 fusion tag at the N terminus. cDNA sequences were used as a […]
# Single PHD zinc f ingers were introduced into the same modif ied SUMO tagged plasmid whereas single bromodomains were f urther subcloned into pET28 derived expression vectors, pNIC28- Bsa4 using ligation independent […]
# Protein Expression and Purification […]
# competent BL21(DE3) Rosetta cells (Invitrogen) or into BL21 (DE3)-R3-pRARE2 cells (phage- resistant derivative with a pRARE plasmid encoding rare codon tRNAs). Cells were grown at 37 °C in Terrific Broth (Sigma) from overnight cultures until A600 reached between 0.6- 0.8, then the media was cooled and 0.2 mM isopropyl-β-Dthiogalactopyranoside (IPTG) was added to induce the protein expression at 20 °C f or 16 hours. An extra 0.1 mM ZnCl 2 was added in the protein expression to those targets that contained a PHD zinc f inger.
# Different purification procedures have been optimized for each target protein. In common, E. coli overexpressed cells were lysed using an EmulsiFlex-C5 hig h-pr es s ure homogenizer (Avestin - Mannheim, Germany) or high -pressure cell disruption (Constant Systems Limited) in loading buffer A from the nickel affinity column (HisTrap Chelating FF 5ml) in the presence of Protease Inhibitor Cocktail EDTA-free (Roche). […]
# on a Beckman Coulter Avanti J-20 XP centrif uge). After centrif ugation, the supernatant was loaded onto the nickel column and eluted in an imidazole linear gradient. The
# BAZ2 BRD = test system: BAZ2 BRD; set-up: method as in Structural Genomics Consortium [SGC] website; details: ref Structural Genomics Consortium [SGC] website; cited from earlier work
# TIP5 PHD = target: T3, TIP5 PHD (Homo sapiens, UniProt Q9UIF9); assay: ITC, histone peptide binding to TIP5 PHD; details: 20 mM HEPES (pH 7.5–8), 150 mM NaCl, 0.5 mM TCEP, 293 or 298 K, protein 60–120 μM in cell, peptide 800–1,500 μM in syringe, ± error of nonlinear least-squares fit
# T3 construct: single PHD zinc fingers (residues 1673- 1728 for TIP5); residues; His6-SUMO (N, cleaved yes); made in house; host or cells: E. coli BL21(DE3) Rosetta or BL21(DE3)-R3-pRARE2
# T3 sequence (Q9UIF9 1673-1728): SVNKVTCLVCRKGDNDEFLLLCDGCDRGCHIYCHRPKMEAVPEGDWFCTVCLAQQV
# Method: as §1, §2
# (§3) GeneBank: Q9UIF8) were synthesized by GenScript with codons optimized f or E. coli. expression and were subcloned into a modif ied pET15 vector using NdeI/XhoI sites f or expression as recombinant proteins with a His6 tag fused with small ubiquitin like modifier (SUMO)-1 fusion tag at the N terminus. cDNA sequences were used as a template to amplify single PHD zinc fingers (residues 1673- 1728 for TIP5; residues 2054- 2168 f or BAZ2B) regions. […]
# BAZ2B PHD = target: T4, BAZ2B PHD (Homo sapiens, UniProt Q9UIF8); assay: ITC, histone peptide binding to BAZ2B PHD; details: 20 mM HEPES (pH 7.5–8), 150 mM NaCl, 0.5 mM TCEP, 293 or 298 K, protein 60–120 μM in cell, peptide 800–1,500 μM in syringe, ± error of nonlinear least-squares fit
# T4 construct: 1928- 1983 for BAZ2B) and bromodomains; His6-SUMO (N, cleaved yes); made in house; host or cells: E. coli BL21(DE3) Rosetta or BL21(DE3)-R3-pRARE2
# T4 sequence (Q9UIF8 1928-1983): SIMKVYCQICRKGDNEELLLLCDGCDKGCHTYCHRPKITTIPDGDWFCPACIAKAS
# Method: as §1, §2, §3
# TIP5 PHD-BRD = target: T5, TIP5 PHD-BRD (Homo sapiens, UniProt Q9UIF9); assay: ITC, histone peptide binding to tandem TIP5 PHD-BRD; details: 20 mM HEPES (pH 7.5–8), 150 mM NaCl, 0.5 mM TCEP, 293 or 298 K, protein 60–120 μM in cell, peptide 800–1,500 μM in syringe, ± error of nonlinear least-squares fit
# T5 construct: (residues 1673– 1901, UniProt: Q9UIF9); His6-SUMO (N, cleaved yes); made in house; host or cells: E. coli BL21(DE3) Rosetta or BL21(DE3)-R3-pRARE2
# T5 sequence (Q9UIF9 1673-1901): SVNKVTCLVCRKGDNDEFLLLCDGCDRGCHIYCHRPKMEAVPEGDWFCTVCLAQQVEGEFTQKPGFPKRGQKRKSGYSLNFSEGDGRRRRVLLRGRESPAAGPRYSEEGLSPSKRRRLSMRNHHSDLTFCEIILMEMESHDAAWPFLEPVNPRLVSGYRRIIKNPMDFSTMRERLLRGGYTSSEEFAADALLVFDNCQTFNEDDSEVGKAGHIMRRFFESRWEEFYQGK
# Method: as §1, §2, §3
# BAZ2B PHD-BRD = target: T6, BAZ2B PHD-BRD (Homo sapiens, UniProt Q9UIF8); assay: ITC, histone peptide binding to tandem BAZ2B PHD-BRD; details: 20 mM HEPES (pH 7.5–8), 150 mM NaCl, 0.5 mM TCEP, 293 or 298 K, protein 60–120 μM in cell, peptide 800–1,500 μM in syringe, ± error of nonlinear least-squares fit
# T6 construct: human BAZ2B (residues 1928-2168,; His6-SUMO (N, cleaved yes); made in house; host or cells: E. coli BL21(DE3) Rosetta or BL21(DE3)-R3-pRARE2
# T6 sequence (Q9UIF8 1928-2168): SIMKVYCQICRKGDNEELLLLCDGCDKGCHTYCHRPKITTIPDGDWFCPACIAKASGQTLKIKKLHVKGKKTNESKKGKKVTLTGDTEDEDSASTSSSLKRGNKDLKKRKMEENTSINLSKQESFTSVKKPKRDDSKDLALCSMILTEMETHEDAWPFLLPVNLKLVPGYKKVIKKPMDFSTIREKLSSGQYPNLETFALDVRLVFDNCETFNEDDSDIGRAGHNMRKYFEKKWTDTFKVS
# Method: as §1, §2, §3
# [1] = ITC, protein 60–120 μM in cell, peptide 800–1,500 μM in syringe, ± error of nonlinear least-squares fit
compound,measurement,setting,value
"Lys-Ser-Thr-Gly-Gly-Kac-Ala-Pro-Ala-Gln [H3(9-19)K14ac [R17A], mutated H3K14ac peptide, R17 to A17]",KD,BAZ2B BRD; [1],no binding
GGK(Ac)GLGK(Ac)G [H4(6–13)K8acK12ac],Kd,TIP5 BRD; [1],63.25 ± 0.11 µM
CCCOc1ccn2c(C(C)=O)cc(-c3ccccc3S(C)(=O)=O)c2c1 [GSK2801],potency/selectivity in words,BAZ2 BRD,selective nanomolar
C[C@H](N)C(=O)N[C@@H](CCCNC(=N)N)C(=O)N[C@H](C(=O)N[C@@H](CCCCN)C(=O)N[C@@H](CCC(N)=O)C(=O)N[C@H](C(=O)N[C@@H](C)C(=O)N[C@@H](CCCNC(=N)N)C(=O)N[C@@H](CCCCN)C(=O)O)[C@@H](C)O)[C@@H](C)O [H3(1–9)],Kd,TIP5 PHD,2.51 ± 0.63 µM
same,Kd,BAZ2B PHD,3.07 ± 0.71 µM
CNCCCC[C@H](NC(=O)[C@@H](NC(=O)[C@H](CCCNC(=N)N)NC(=O)[C@H](C)N)[C@@H](C)O)C(=O)N[C@@H](CCC(N)=O)C(=O)N[C@H](C(=O)N[C@@H](C)C(=O)N[C@@H](CCCNC(=N)N)C(=O)N[C@@H](CCCCN)C(=O)O)[C@@H](C)O [H3(1–9)K4me],Kd,TIP5 PHD,2.5 ± 0.43 µM
same,Kd,BAZ2B PHD,3.98 ± 0.61 µM
GAK(Ac)RHRK(Ac)VL [H4(14–22)K16acK20ac],Kd,TIP5 BRD; [1],26.1 ± 0.37 µM
same,Kd,BAZ2B BRD; [1],42.41 ± 0.42 µM
"Gly-Ala-Kac-Arg-His-Ala-Lys-Val-Leu [H4(14-22)K16ac [R19A], mutated H4K16ac peptide, R19 to A19]",KD,TIP5 BRD; [1],no binding
CC(=O)NCCCC[C@H](NC(=O)CNC(=O)CNC(=O)[C@@H](NC(=O)[C@H](CO)NC(=O)[C@H](CCCCN)NC(=O)[C@H](CCCNC(=N)N)NC(=O)[C@H](C)NC(=O)[C@@H](NC(=O)[C@H](CCC(N)=O)NC(=O)[C@H](CCCCN)NC(=O)[C@@H](NC(=O)[C@H](CCCNC(=N)N)NC(=O)[C@H](C)N)[C@@H](C)O)[C@@H](C)O)[C@@H](C)O)C(=O)N[C@@H](C)C(=O)N1CCC[C@H]1C(=O)N[C@@H](CCCNC(=N)N)C(=O)N[C@@H](CCCCN)C(=O)O [H3(1–18)K14ac],Kd,TIP5 PHD-BRD,1.87 ± 0.29 µM
same,Kd,BAZ2B PHD-BRD,2.33 ± 0.19 µM
GAK(Ac)RHRKVL [H4(14–22)K16ac],N,"TIP5 BRD; ITC stoichiometry, ± fit error",1.186 ± 0.015
same,TΔS,TIP5 BRD; ITC,-6.533 kcal/mol
same,ΔG,TIP5 BRD; ITC,-6.207 kcal/mol
same,TΔS,"TIP5 BRD; ITC, listed as H4(14-22)K16ac",-6.533 kcal/mol
same,ΔG,"TIP5 BRD; ITC, listed as H4(14-22)K16ac",-6.206 kcal/mol
same,ΔH,"TIP5 BRD; ITC, ± fit error",-12.740 ± 0.226 kcal/mol
same,ΔH,"TIP5 BRD; ITC, ± fit error, listed as H4(14-22)K16ac",-12.740 ± 0.226 kcal/mol
same,N,"BAZ2B BRD; ITC stoichiometry, ± fit error",1.062 ± 0.064
same,TΔS,BAZ2B BRD; ITC,2.989 kcal/mol
same,ΔG,BAZ2B BRD; ITC,-5.809 kcal/mol
same,ΔH,"BAZ2B BRD; ITC, ± fit error",-2.820 ± 0.223 kcal/mol
